Legend:
sugar beet = test: Test B pre/postemergence sugar beet; assay type: in vivo, Beta vulgaris
Method in brief: (§1)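 Herbicidal effect was estimated by eye on a ten-point control scale after plants spent twelve to sixteen days in a greenhouse following soil or foliar treatment. Foliar sprays targeted plants at one to four leaves; all doses were formulated in a non-phytotoxic solvent with surfactant.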

rape = test: Test B pre/postemergence rape; assay type: in vivo, Brassica napus
Method in brief: as §1

corn = test: Test B pre/postemergence corn; assay type: in vivo, Zea mays
Method in brief: as §1

smallflower flatsedge = test: Test B flood test smallflower flatsedge; assay type: in vivo, Cyperus difformis
Method in brief: (§2)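 Plants were grown to the 2-leaf stage before treatment with test chemical, then held in a greenhouse for twelve to sixteen days. Injury was visually rated against untreated controls on a 0–10 scale, where 0 is no effect and 10 is complete control.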

blackgrass = test: Test B pre/postemergence blackgrass; assay type: in vivo, Alopecurus myosuroides
Method in brief: as §1

morningglory = test: Test B pre/postemergence morningglory; assay type: in vivo, Ipomoea hederacea
Method in brief: as §1

purple nutsedge = test: Test B pre/postemergence purple nutsedge; assay type: in vivo, Cyperus rotundus
Method in brief: as §1

rice = test: Test B flood test rice; assay type: in vivo, Oryza sativa
Method in brief: as §2

giant foxtail = test: Test B pre/postemergence giant foxtail; assay type: in vivo, Setaria faberii
Method in brief: as §1

bedstraw = test: Test B pre/postemergence bedstraw; assay type: in vivo, Galium aparine; settings: Preemergence, Rate 62 g/ha; scale 0 to 10 (0 no effect, 10 complete control)
Method in brief: as §1

velvetleaf = test: Test B pre/postemergence velvetleaf; assay type: in vivo, Abutilon theophrasti
Method in brief: as §1

surinam grass = test: Test B pre/postemergence surinam grass; assay type: in vivo, Brachiaria decumbens
Method in brief: as §1

bamyardgrass = test: Test B flood test barnyardgrass; assay type: in vivo, Echinochloa crus-galli
Method in brief: as §2

soybean = test: Test B pre/postemergence soybean; assay type: in vivo, Glycine max
Method in brief: as §1

pigweed = test: Test B pre/postemergence pigweed; assay type: in vivo, Amaranthus retroflexus
Method in brief: as §1

duck salad = test: Test B flood test duck salad; assay type: in vivo, Heteranthera limosa
Method in brief: as §2

[1] = Postemergence, Rate 250 g/ha, scale 0 to 10, 0 is no effect, 10 is complete control
[2] = Postemergence, Rate 500 g/ha, scale of 0 to 10 where 0 is no effect and 10 is complete control
[3] = Preemergence, Rate 62 g/ha, scale 0 to 10 (0 no effect, 10 complete control)
[4] = Preemergence, Rate 125 g/ha, scale of 0 to 10 where 0 is no effect and 10 is complete control
[5] = Preemergence, Rate 250 g/ha, scale of 0 to 10 where 0 is no effect and 10 is complete control
[6] = Preemergence, Rate 500 g/ha, scale of 0 to 10 where 0 is no effect and 10 is complete control
[7] = Rate 62 g/ha, Postemergence, scale of 0 to 10 where 0 is no effect and 10 is complete control
[8] = Postemergence, Rate 125 g/ha, scale 0 to 10, 0 is no effect, 10 is complete control
[9] = Rate 62 g/ha, flood test species, Pre-emergence, visual evaluation after twelve to sixteen days
[10] = Rate 125 g/ha, under heading Pre-emergence, flood test species, visual evaluation after twelve to sixteen days
[11] = Rate 250 g/ha, Pre-emergence, flood-test species, scale 0 to 10, 0 is no effect, 10 is complete control
[12] = Rate 500 g/ha, Pre-emergence, flood test species, scale 0 to 10 (0 no effect, 10 complete control)

SMILES: CC(C)N(C(=O)n1oc(=O)n(C(C)Cl)c1=O)c1ccc(F)cc1 (stereo not drawn) [Compound 393]
- Plant response rating, Sugarbeets (sugar beet; [1]): 0
- Sugarbeets plant response rating (sugar beet; [2]): 7
- Plant response rating, Sugarbeets (sugar beet; [3]): 0
- Plant response rating, Sugarbeets (sugar beet; [4]): 2
- Sugarbeets plant response rating (sugar beet; [5]): 2
- Sugarbeets plant response rating (sugar beet; [6]): 3
- Sugarbeets plant response rating (sugar beet; [7]): 0
- Plant response rating, Rape (rape; [1]): 3
- Plant response rating, Rape (rape; [3]): 0
- Plant response rating, Rape (rape; [4]): 0
- Rape plant response rating (rape; [5]): 0
- Rape plant response rating (rape; [6]): 0
- Plant response rating, Corn (corn; [8]): 0
- Plant response rating, Corn (corn; [1]): 0
- Corn plant response rating (corn; [2]): 0
- Plant response rating, Corn (corn; [3]): 0
- Plant response rating, Corn (corn; [4]): 0
- Corn plant response rating (corn; [5]): 0
- Corn plant response rating (corn; [6]): 0
- Corn plant response rating (corn; [7]): 0
- Plant response rating, S. Flatsedge (0 to 10 scale, 0 is no effect, 10 is complete control) (smallflower flatsedge; [9]): 0
- S. Flatsedge plant response rating (0 to 10 scale, 0 is no effect, 10 is complete control) (smallflower flatsedge; [10]): 0
- S. Flatsedge plant response rating (smallflower flatsedge; [11]): 0
- S. Flatsedge plant response rating (smallflower flatsedge; [12]): 0
- Plant response rating, Blackgrass (blackgrass; [8]): 2
- Plant response rating, Blackgrass (blackgrass; [1]): 3
- Blackgrass plant response rating (blackgrass; [2]): 8
- Plant response rating, Blackgrass (blackgrass; [3]): 0
- Plant response rating, Blackgrass (blackgrass; [4]): 0
- Blackgrass plant response rating (blackgrass; [5]): 0
- Blackgrass plant response rating (blackgrass; [6]): 3
- Blackgrass plant response rating (blackgrass; [7]): 0
- Plant response rating, Morningglory (morningglory; [1]): 0
- Morningglory plant response rating (morningglory; [2]): 0
- Plant response rating, Morningglory (morningglory; [3]): 0
- Plant response rating, Morningglory (morningglory; [4]): 0
- Morningglory plant response rating (morningglory; [5]): 0
- Morningglory plant response rating (morningglory; [6]): 2
- Morningglory plant response rating (morningglory; [7]): 0
- Plant response rating, Nutsedge (purple nutsedge; [1]): 0
- Nutsedge plant response rating (purple nutsedge; [2]): 0
- Plant response rating, Nutsedge (purple nutsedge; [3]): 0
- Plant response rating, Nutsedge (purple nutsedge; [4]): 0
- Nutsedge plant response rating (purple nutsedge; [5]): 0
- Nutsedge plant response rating (purple nutsedge; [6]): 0
- Nutsedge plant response rating (purple nutsedge; [7]): 0
- Plant response rating, Rice (0 to 10 scale, 0 is no effect, 10 is complete control) (rice; [9]): 0
- Rice plant response rating (0 to 10 scale, 0 is no effect, 10 is complete control) (rice; [10]): 0
- Rice plant response rating (rice; [11]): 0
- Rice plant response rating (rice; [12]): 0
- Plant response rating, Giant foxtail (giant foxtail; [8]): 8
- Plant response rating, Giant foxtail (giant foxtail; [1]): 9
- Giant foxtail plant response rating (giant foxtail; [2]): 9
- Plant response rating, Giant foxtail (giant foxtail; [3]): 1
- Plant response rating, Giant foxtail (giant foxtail; [4]): 9
- Giant foxtail plant response rating (giant foxtail; [5]): 10
- Giant foxtail plant response rating (giant foxtail; [6]): 10
- Giant foxtail plant response rating (giant foxtail; [7]): 5
- Plant response rating, Bedstraw (bedstraw): 0
- Plant response rating, Velvetleaf (velvetleaf; [1]): 0
- Velvetleaf plant response rating (velvetleaf; [2]): 0
- Plant response rating, Velvetleaf (velvetleaf; [3]): 0
- Plant response rating, Velvetleaf (velvetleaf; [4]): 0
- Velvetleaf plant response rating (velvetleaf; [5]): 0
- Velvetleaf plant response rating (velvetleaf; [6]): 0
- Velvetleaf plant response rating (velvetleaf; [7]): 0
- Plant response rating, B. signalgrass (surinam grass; [8]): 0
- Plant response rating, B. signalgrass (surinam grass; [1]): 0
- B. signalgrass plant response rating (surinam grass; [2]): 0
- Plant response rating, B. signalgrass (surinam grass; [3]): 0
- Plant response rating, B. signalgrass (surinam grass; [4]): 0
- B. signalgrass plant response rating (surinam grass; [5]): 0
- B. signalgrass plant response rating (surinam grass; [6]): 2
- B. signalgrass plant response rating (surinam grass; [7]): 0
- Plant response rating, Barnyardgrass (0 to 10 scale, 0 is no effect, 10 is complete control) (bamyardgrass; [9]): 0
- Barnyardgrass plant response rating (0 to 10 scale, 0 is no effect, 10 is complete control) (bamyardgrass; [10]): 0
- Barnyardgrass plant response rating (bamyardgrass; [11]): 0
- Barnyardgrass plant response rating (bamyardgrass; [12]): 0
- Plant response rating, Soybean (soybean; [1]): 2
- Soybean plant response rating (soybean; [2]): 2
- Plant response rating, Soybean (soybean; [3]): 0
- Plant response rating, Soybean (soybean; [4]): 0
- Soybean plant response rating (soybean; [5]): 0
- Soybean plant response rating (soybean; [6]): 0
- Soybean plant response rating (soybean; [7]): 1
- Plant response rating, Redroot pigweed (pigweed; [1]): 0
- Redroot pigweed plant response rating (pigweed; [2]): 0
- Plant response rating, Redroot pigweed (pigweed; [3]): 0
- Plant response rating, Redroot pigweed (pigweed; [4]): 2
- Redroot pigweed plant response rating (pigweed; [5]): 2
- Redroot pigweed plant response rating (pigweed; [6]): 10
- Redroot pigweed plant response rating (pigweed; [7]): 0
- Plant response rating, Ducksalad (0 to 10 scale, 0 is no effect, 10 is complete control) (duck salad; [9]): 0
- Ducksalad plant response rating (0 to 10 scale, 0 is no effect, 10 is complete control) (duck salad; [10]): 0
- Ducksalad plant response rating (duck salad; [11]): 0
- Ducksalad plant response rating (duck salad; [12]): 0

From patent publication US6737383B1, “Herbicidal oxadiazolidines” (priority 1999, dated 2004)
